The values that follow come from article PMC8040520 (ACS chemical biology, 2020).

By Km is commonly meant the concentration of substrate that gives half-maximal velocity.

In this assay the test system is BolI. Briefly: steady-state kinetics, CoA production. Format: biochemical, Bradyrhizobium oligotrophicum. The settings on record: co-substrate SAM presumed; details in supplement.

Turning to `CC(C)(COP(=O)(O)OP(=O)(O)OC[C@H]1O[C@@H](n2cnc3c(N)ncnc32)[C@H](O)[C@@H]1OP(=O)(O)O)[C@@H](O)C(=O)NCCC(=O)NCCSC(=O)/C=C/c1ccccc1` [cinnamoyl-CoA], the Km turned out to be 3 µM.
